Assay results taken from ChEMBL document CHEMBL1765018, “Inhibition of amyloid-β aggregation by coumarin analogs can be manipulated by functionalization of the aromatic center” (Bioorg Med Chem, 2011).
Calls of active or inactive are those of the source. The rule behind the calls is not given here.

How the values were obtained:
[1] = Inhibition of amyloid beta (1 to 40) monomer aggregation assessed as reduction in plateau fluorescence by thioflavin T based fluorometric assay; set-up: concentration or dose not given beside the values
[2] = Inhibition of amyloid beta (1 to 40) monomer aggregation assessed as lag time extension by thioflavin T based fluorometric assay relative to control
[3] = Inhibition of amyloid beta (1 to 40) monomer aggregation assessed as doubling in lag time by thioflavin T based fluorometric assay
[4] = Inhibition of amyloid beta (1 to 40) monomer aggregation at 100 uM by thioflavin T based fluorometric assay

Row | SMILES | inhibition ([1]; concentration not given here) [%] | fold change (FC) [2] | other results
1 | N#Cc1cc2ccccc2oc1=O | 22 | 1 | 
2 | O=c1oc2ccccc2cc1-n1cc(-c2cccc3ccccc23)nn1 | 61 | 2 | Activity [3]: Active
3 | CCN(CC)c1ccc2c(C#N)c(C(C)=O)c(=O)oc2c1 |  | 1.8 | 
4 | O=c1oc2ccccc2cc1-c1nn[nH]n1 | 87 | 1 | 
5 | CCN(CC)c1ccc2cc([N+](=O)[O-])c(=O)oc2c1 |  | 1.7 | 
6 | CCN(CC)c1ccc2c(C#N)c(N)c(=O)oc2c1 |  | 2.1 | 
7 | CCN(CC)c1ccc2c(C#N)c(-c3nc4ccccc4s3)c(=O)oc2c1 | 38 | 1.1 | 
8 | O=C(O)CCCC(=O)NCc1cn(-c2cc3ccccc3oc2=O)nn1 |  |  | inhibition [1]: inactive; Activity [2]: inactive
9 | O=c1oc2ccccc2cc1-n1cc(-c2ccccc2)nn1 | 88 | 2.2 | 
10 | CCN(CC)c1ccc2c(-c3nnn[nH]3)c(-c3nc4ccccc4s3)c(=O)oc2c1 | 96 | 1 | 
11 | O=c1cc(-n2cc(-c3ccccc3)nn2)c2ccccc2o1 | 73 | 1.4 | 
12 | CCN(CC)c1ccc2cc(-c3nc4ccccc4s3)c(=O)oc2c1 | 64 | 1.3 | 
13 | O=c1cc(Cl)c2ccccc2o1 |  |  | inhibition [1]: inactive; Activity [2]: inactive; Activity [4]: inactive
